Results: patent publication US12612403B2, “Nitrogen-containing heterocyclic derivative inhibitor, and preparation method therefor and use thereof” (SHANGHAI HANSOH BIOMEDICAL CO., LTD., priority 2024, dated 2026)

Molecular target: T1, PCSK9 protein (Homo sapiens, UniProt Q8NBP7)
T1 construct: purchased Sino biology (Sino Biological) 29698-H08H
Assay: Binding ability to PCSK9 protein (HTRF)
Settings: PCSK9-His, Alexa Fluor 647 probe compound
Protocol: 1. Experimental objective: To detect the action of compounds to bind PCSK9 protein by an HTRF method.
3. Experimental data processing method: Four-parameter log(inhibitor) vs. response—Variable slope (four parameters) in XLit was used to perform non-linear fitting of the compound concentration and the corresponding inhibition rate, and IC50 was calculated.

T1 sequence (Q8NBP7 153-692): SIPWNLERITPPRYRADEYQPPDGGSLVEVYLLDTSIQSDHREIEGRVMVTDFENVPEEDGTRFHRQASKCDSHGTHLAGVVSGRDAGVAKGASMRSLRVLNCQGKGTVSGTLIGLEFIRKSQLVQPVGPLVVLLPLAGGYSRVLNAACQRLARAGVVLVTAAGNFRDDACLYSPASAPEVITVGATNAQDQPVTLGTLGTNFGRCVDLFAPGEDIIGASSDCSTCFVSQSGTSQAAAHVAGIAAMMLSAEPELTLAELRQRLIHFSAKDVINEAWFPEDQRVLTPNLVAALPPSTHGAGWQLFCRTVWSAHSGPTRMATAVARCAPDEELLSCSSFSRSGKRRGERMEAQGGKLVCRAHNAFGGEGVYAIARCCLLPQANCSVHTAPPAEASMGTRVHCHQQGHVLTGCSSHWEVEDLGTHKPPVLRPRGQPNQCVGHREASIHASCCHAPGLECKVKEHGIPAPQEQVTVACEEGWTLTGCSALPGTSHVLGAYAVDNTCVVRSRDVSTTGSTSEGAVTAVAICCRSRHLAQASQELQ

SMILES | IC50 [nM]
O=c1ccncn1-c1ccc(N[C@H]2CC[C@H](Nc3nc4cc(F)ccn4n3)C2)nc1 [Example 28, 3-(6-(((1S,3S)-3-((7-fluoro-[1,2,4]triazolo[1,5-a]pyridin-2-yl)amino)cyclopentyl)amino)pyridin-3-yl)pyrimidin-4(3H)-one] | 17.4
O=c1cnccn1-c1ccc(N[C@H]2CC[C@H](Nc3nc4cc(F)ccn4n3)C2)nc1 [Example 29, 1-(6-(((1S,3S)-3-((7-fluoro-[1,2,4]triazolo[1,5-a]pyridin-2-yl)amino)cyclopentyl)amino)pyridin-3-yl)pyrazin-2(1H)-one] | 18.4
O=C1COCCN1c1ccc(N[C@H]2CC[C@H](Nc3nc4cc(F)ccn4n3)C2)nc1 [Example 53, 4-(6-(((1S,3S)-3-((7-fluoro-[1,2,4]triazolo[1,5-a]pyridin-2-yl)amino)cyclopentyl)amino)pyridin-3-yl)morpholin-3-one] | 43.6
O=C1c2ncc(F)cc2CN1c1ccc(N[C@H]2CC[C@H](Nc3nc4cc(OC(F)F)ccn4n3)C2)nc1 [Example 98] | 6.6
O=c1nc(O)ccn1-c1ccc(N[C@H]2CC[C@H](Nc3nc4cc(F)ccn4n3)C2)nc1 [Example 102] | 13.3
O=c1nc(O)ccn1-c1ccc(N[C@H]2CC[C@H](Nc3nc4cc(C(F)F)ccn4n3)C2)nc1 [Example 104] | 13.9
O=c1nc(O)ccn1-c1ccc(N[C@H]2CC[C@H](Nc3nc4cc(OC(F)F)ccn4n3)C2)nc1 [Example 105] | 9.1
Cc1ccn2nc(N[C@H]3CC[C@H](Nc4ccc(-n5ccc(O)nc5=O)cn4)C3)nc2c1 [Example 106] | 10.6
O=c1nc(O)ccn1-c1ccc(N[C@H]2CC[C@H](Nc3nc4cc(C5CC5)ccn4n3)C2)nc1 [Example 107] | 21.3
O=c1nc(O)c(C(F)(F)F)cn1-c1ccc(N[C@H]2CC[C@H](Nc3nc4cc(C(F)(F)F)ccn4n3)C2)nc1 [Example 119] | 23
Cc1cnc2c(c1)C(=O)N(c1ccc(N[C@H]3CC[C@H](Nc4nc5cc(OC(F)F)ccn5n4)C3)nc1)C2 [Example 128] | 8.5
O=C1c2c(F)ccnc2CN1c1ccc(N[C@H]2CC[C@H](Nc3nc4cc(OC(F)F)ccn4n3)C2)nc1 [Example 135] | 5.4
N#Cc1cnc2c(c1)C(=O)N(c1ccc(N[C@H]3CC[C@H](Nc4nc5cc(F)ccn5n4)C3)nc1)C2 [Example 137] | 15.9
O=C1c2ccc(O)nc2CN1c1ccc(N[C@H]2CC[C@H](Nc3nc4cc(OC(F)F)ccn4n3)C2)nc1 [Example 138] | 8.8
O=C1c2nc(O)ccc2CN1c1ccc(N[C@H]2CC[C@H](Nc3nc4cc(C(F)(F)F)ccn4n3)C2)nc1 [Example 139] | 36.3
Cc1cc(N[C@H]2CC[C@H](Nc3nc4cc(C(F)(F)F)ccn4n3)C2)ncc1N1Cc2nc(O)ccc2C1=O [Example 144] | 15.6
O=C1c2cccnc2CN1c1cnc(N[C@H]2CC[C@H](Nc3nc4cc(OC(F)F)ccn4n3)C2)c(F)c1 [Example 152] | 6.7

SMILES | IC50 [nM]
O=C1c2cc(F)cnc2CN1c1cnc(N[C@H]2CC[C@H](Nc3nc4cc(OC(F)F)ccn4n3)C2)c(F)c1 [Example 158] | 16
Cc1cc2c(cn1)CN(c1cnc(N[C@H]3CC[C@H](Nc4nc5cc(OC(F)F)ccn5n4)C3)c(F)c1)C2=O [Example 160] | 7.7
O=C1c2ncccc2CN1c1cnc(N[C@H]2CC[C@H](Nc3nc4cc(C5CC5)ccn4n3)C2)c(F)c1 [Example 166] | 7.9
CC(C)(O)c1ccn2nc(N[C@H]3CC[C@H](Nc4ncc(N5Cc6cccnc6C5=O)cc4F)C3)nc2c1 [Example 168] | 10.6
COc1cc(N2Cc3cccnc3C2=O)cnc1N[C@H]1CC[C@H](Nc2nc3cc(C(F)(F)F)ccn3n2)C1 [Example 170] | 13.3
Cc1nc(N[C@H]2CC[C@H](Nc3nc4cc(C(F)(F)F)ccn4n3)C2)ccc1N1Cc2cccnc2C1=O [Example 176] | 9.08
CC(C)(O)c1cccn(-c2cnc(N[C@H]3CC[C@H](Nc4nc5cc(C(F)(F)F)ccn5n4)C3)c(F)c2)c1=O [Example 182] | 29.3
Cc1cc2c(cn1)CN(c1cnc(N[C@H]3CC[C@H](Nc4nc5cc(F)ccn5n4)C3)c(F)c1)C2=O [Example 190] | 8.5
O=c1[nH]cc(-c2cnc(N[C@H]3CC[C@H](Nc4nc5cc(C(F)(F)F)ccn5n4)C3)c(F)c2)c(=O)[nH]1 [Example 195] | 9.6
CC(C)(O)c1cnc2c(c1)CN(c1cnc(N[C@H]3CC[C@H](Nc4nc5cc(F)ccn5n4)C3)c(F)c1)C2=O [Example 196] | 8.7
CC(C)(O)c1ccnc2c1CN(c1cnc(N[C@H]3CC[C@H](Nc4nc5cc(F)ccn5n4)C3)c(F)c1)C2=O [Example 197] | 7.5
O=C1c2nccn2CCN1c1cnc(N[C@H]2CC[C@H](Nc3nc4cc(C(F)(F)F)ccn4n3)C2)c(F)c1 [Example 213] | 9.5
Cc1ccn2nc(N[C@H]3CC[C@H](Nc4ncc(N5Cc6ncccc6C5=O)cc4F)C3)nc2c1 [Example 223] | 7.2
Cc1ccn2nc(N[C@H]3CC[C@H](Nc4ncc(-n5ccccc5=O)cc4F)C3)nc2c1 [Example 224] | 8.5
Cc1ccn2nc(N[C@H]3CC[C@H](Nc4ncc(-n5ccc(O)nc5=O)cc4F)C3)nc2c1 [Example 225] | 8.6
Cc1ccn2nc(N[C@H]3CC[C@H](Nc4ncc(N5CCn6nccc6C5=O)cc4F)C3)nc2c1 [Example 226] | 7.1
Cc1nc(N[C@H]2CC[C@H](Nc3nc4cc(C(F)(F)F)ccn4n3)C2)c(F)cc1N1CCn2nccc2C1=O [Example 238] | 8
